Reference: the supplement of paper PMC10627819

Legend:
[1] = test system: S. pneumoniae D39V; assay: Bliss interaction score (quartile over a dose matrix) (fitness difference); higher = more antagonism (negative = synergy)
In short: (§1)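 Fitness was defined as normalised growth: OD595 at the start of stationary phase divided by the plate's robust no-drug mean and capped at 1. Single-drug fitness was inferred from combination measurements. The Bliss score is observed fitness minus the product of the single-drug values, summarised by quartiles across technical, biological and donor/recipient replicates.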

[2] = test system: S. aureus DSM 20231; assay: as above
In short: as §1

[3] = test system: S. aureus Newman; assay: as above
In short: as §1

[4] = test system: B. subtilis 168; assay: as above
In short: as §1

[5] = test system: S. pneumoniae D39V; assay: fitness (endpoint OD595 vs no drug) (fraction); higher = more growth
In short: (§2)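 Bacterial fitness was scored as optical density at the stationary-phase transition relative to the robust mean of no-drug control wells. Scores are capped at 1. The growth data were OD595 readings every 30 min for 14 h at 37 °C, background-subtracted against the first reading, from 384-well plates inoculated at OD595 0.01 in TSB, LB Lennox or CY.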

[6] = test system: S. aureus DSM 20231; assay: as above
In short: as §2

[7] = test system: S. aureus Newman; assay: as above
In short: as §2

[8] = test system: B. subtilis 168; assay: as above
In short: as §2
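Wherever Bliss interaction score (quartile over a dose matrix) is given: first quartile when negative (synergy) and third quartile when positive (antagonism).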
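Wherever fitness (endpoint OD595 vs no drug) is given: OD595 on entry to stationary phase over no-drug wells; at most 1.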

COc1ccc(C[C@H](N)C(=O)N[C@H]2[C@@H](O)[C@H](n3cnc4c(N(C)C)ncnc43)O[C@@H]2CO)cc1 [Puromycin] + Cc1cc(NS(=O)(=O)c2ccc(N)cc2)no1 [Sulfamethoxazol]
Details	Bliss interaction score
[1]	0.113
[2]	0.0554
[3]	0.0386
[4]	0.0514

fitness
Details	partner 1 µg/mL	partner 2 µg/mL	partner 4 µg/mL
[5], first compound 1 µg/mL	0.945	0.934	0.961
[5], first compound 2 µg/mL	0.948	0.927	0.932
[5], first compound 4 µg/mL	0.799	0.807	0.947
[6], first compound 0.39 µg/mL	0.998	0.996	≥ 1
[6], first compound 0.78 µg/mL	0.988	≥ 1	0.995
[6], first compound 1.56 µg/mL	0.952	0.992	0.961
[7], first compound 0.78 µg/mL	0.996	0.943	0.958
[7], first compound 1.56 µg/mL	0.966	0.968	≥ 1
[8], first compound 0.39 µg/mL	0.934	0.947	0.891
[8], first compound 0.78 µg/mL	0.921	0.863	0.949
[8], first compound 1.56 µg/mL	0.968	0.888	0.941

one replicate
Details	fitness
[6], first compound 3.12 µg/mL, partner 1 µg/mL	0.884
[6], first compound 3.12 µg/mL, partner 2 µg/mL	0.864
[6], first compound 3.12 µg/mL, partner 4 µg/mL	0.969
[6], first compound 6.24 µg/mL, partner 1 µg/mL	0.722
[6], first compound 6.24 µg/mL, partner 2 µg/mL	0.706
[6], first compound 6.24 µg/mL, partner 4 µg/mL	0.736
[7], first compound 0.39 µg/mL, partner 8 µg/mL	0.916
[7], first compound 0.78 µg/mL, partner 8 µg/mL	0.931
[7], first compound 1.56 µg/mL, partner 8 µg/mL	0.983
[8], first compound 0.39 µg/mL, partner 0.5 µg/mL	≥ 1
[8], first compound 0.78 µg/mL, partner 0.5 µg/mL	0.996
[8], first compound 1.56 µg/mL, partner 0.5 µg/mL	0.992

Cc1ncc([N+](=O)[O-])n1CCO [Metronidazole] + CCN(CC)CCOC(=O)c1ccc(N)cc1 [Procaine]
Details	Bliss interaction score
[1]	-0.0526
[2]	0.0477
[3]	0.0807
[4]	-0.0393

fitness
Details	partner 85.5 µg/mL	partner 171 µg/mL	partner 342 µg/mL
[5], first compound 1.073 µg/mL	0.979	0.969	0.939
[5], first compound 2.145 µg/mL	0.911	0.948	0.89
[5], first compound 4.29 µg/mL	0.914	0.894	0.927
[6], first compound 0.625 µg/mL	0.996	≥ 1	≥ 1
[6], first compound 1.25 µg/mL	0.977	≥ 1	≥ 1
[6], first compound 2.5 µg/mL	0.938	≥ 1	≥ 1
[7], first compound 0.625 µg/mL	0.934	0.934	0.686
[7], first compound 1.25 µg/mL	0.858	0.988	–
[7], first compound 2.5 µg/mL	0.814	0.876	–
[8], first compound 0.625 µg/mL	0.94	0.944	0.876
[8], first compound 1.25 µg/mL	0.935	0.956	0.937
[8], first compound 2.5 µg/mL	0.896	0.868	0.958

fitness, one replicate
Details	first compound 0.781 µg/mL	first compound 1.25 µg/mL	first compound 1.562 µg/mL	first compound 2.5 µg/mL	first compound 3.124 µg/mL	first compound 5 µg/mL
[5], partner 85.5 µg/mL	–	≥ 1	–	≥ 1	–	0.979
[5], partner 171 µg/mL	–	≥ 1	–	≥ 1	–	≥ 1
[5], partner 342 µg/mL	–	0.952	–	≥ 1	–	0.95
[7], partner 85.5 µg/mL	≥ 1	–	≥ 1	–	≥ 1	–
[7], partner 171 µg/mL	≥ 1	–	≥ 1	–	≥ 1	–
[7], partner 342 µg/mL	≥ 1	–	≥ 1	–	≥ 1	–

C[C@@H]1O[C@@H]1P(=O)(O)O [Fosfomycin] + CN[C@@H]1[C@H](O)[C@H](NC)[C@H]2O[C@@]3(O)C(=O)C[C@@H](C)O[C@H]3O[C@@H]2[C@H]1O [Spectinomycin]
Details	Bliss interaction score
[1]	0.0537
[2]	-0.0508
[3]	-0.171
[4]	-0.107

fitness
Details	partner 2 µg/mL	partner 4 µg/mL	partner 8 µg/mL	partner 16 µg/mL
[5], first compound 1.25 µg/mL	–	0.943	0.885	0.806
[5], first compound 2.5 µg/mL	–	0.899	0.868	0.817
[5], first compound 5 µg/mL	–	0.704	0.734	0.652
[6], first compound 0.781 µg/mL	–	0.69	0.72	0.683
[6], first compound 1.562 µg/mL	–	0.588	0.568	0.595
[6], first compound 3.124 µg/mL	–	0.511	0.495	0.416
[7], first compound 0.781 µg/mL	–	0.574	0.58	0.497
[7], first compound 1.562 µg/mL	–	0.452	0.412	0.234
[7], first compound 3.124 µg/mL	–	0.0691	0.0277	0.0028
[8], first compound 1.562 µg/mL	0.657	0.662	0.601	–
[8], first compound 3.124 µg/mL	0.554	0.526	0.426	–
[8], first compound 6.248 µg/mL	0.431	0.4	0.212	–

fitness, one replicate
Details	first compound 0.781 µg/mL	first compound 1.562 µg/mL	first compound 3.124 µg/mL
[6], partner 32 µg/mL	0.692	0.564	0.268
[6], partner 64 µg/mL	0.0413	0.0145	0.0077
[7], partner 32 µg/mL	0.056	0.0135	0
[7], partner 64 µg/mL	0.0367	0.0527	0.0276

Cc1ncc([N+](=O)[O-])n1CCO [Metronidazole] + C[n+]1ccc(-c2cc[n+](C)cc2)cc1 [Paraquat]
Details	Bliss interaction score
[1]	-0.0431
[2]	0.0478
[3]	0.0779
[4]	0.0442

fitness
Details	first compound 0.625 µg/mL	first compound 1.073 µg/mL	first compound 1.25 µg/mL	first compound 2.145 µg/mL	first compound 2.5 µg/mL	first compound 4.29 µg/mL
[5], partner 1.5 µg/mL	–	0.969	–	0.958	–	0.899
[5], partner 3 µg/mL	–	0.999	–	0.905	–	0.95
[5], partner 6 µg/mL	–	0.982	–	0.803	–	0.912
[6], partner 1.25 µg/mL	0.97	–	≥ 1	–	≥ 1	–
[6], partner 2.5 µg/mL	0.954	–	≥ 1	–	≥ 1	–
[6], partner 5 µg/mL	0.955	–	0.978	–	≥ 1	–
[7], partner 1.25 µg/mL	0.936	–	0.875	–	0.862	–
[7], partner 2.5 µg/mL	0.944	–	0.934	–	0.963	–
[7], partner 5 µg/mL	0.888	–	0.932	–	0.973	–
[8], partner 1.25 µg/mL	0.973	–	0.949	–	0.917	–
[8], partner 2.5 µg/mL	0.957	–	0.929	–	0.917	–
[8], partner 5 µg/mL	0.851	–	0.864	–	0.851	–

fitness, one replicate
Details	first compound 0.781 µg/mL	first compound 1.25 µg/mL	first compound 1.562 µg/mL	first compound 2.5 µg/mL	first compound 3.124 µg/mL	first compound 5 µg/mL
[5], partner 1.5 µg/mL	–	0.983	–	≥ 1	–	≥ 1
[5], partner 3 µg/mL	–	0.99	–	≥ 1	–	≥ 1
[5], partner 6 µg/mL	–	≥ 1	–	≥ 1	–	≥ 1
[7], partner 1.25 µg/mL	0.916	–	0.899	–	0.844	–
[7], partner 2.5 µg/mL	0.951	–	0.874	–	0.908	–
[7], partner 5 µg/mL	0.919	–	0.907	–	0.984	–
